Blank lines part the entries; values can stand above or below the molecule they belong to. The source made the active and inactive calls.
Tests used:
Cytochrome P450 1A2 [1] = biological target: T1, Cytochrome P450 1A2 (Homo sapiens, UniProt P05177);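 also: PubChem cytochrome P450 panel assay, CYP1A2 panel member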
T1 sequence (P05177 whole entry): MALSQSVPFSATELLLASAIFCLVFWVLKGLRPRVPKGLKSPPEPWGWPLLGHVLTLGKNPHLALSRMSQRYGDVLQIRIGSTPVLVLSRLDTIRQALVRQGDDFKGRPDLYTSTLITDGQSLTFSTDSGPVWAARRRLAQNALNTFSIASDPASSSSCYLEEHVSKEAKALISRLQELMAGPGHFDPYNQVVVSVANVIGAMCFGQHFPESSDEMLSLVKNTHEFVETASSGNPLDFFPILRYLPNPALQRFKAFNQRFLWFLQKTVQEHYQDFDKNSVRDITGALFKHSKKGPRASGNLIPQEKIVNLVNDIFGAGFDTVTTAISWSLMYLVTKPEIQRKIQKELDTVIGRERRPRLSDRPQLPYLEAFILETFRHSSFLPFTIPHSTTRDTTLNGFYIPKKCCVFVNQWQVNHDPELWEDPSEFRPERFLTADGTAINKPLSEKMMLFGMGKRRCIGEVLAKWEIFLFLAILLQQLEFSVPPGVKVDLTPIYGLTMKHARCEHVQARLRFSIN

Cytochrome P450 1A2 [2] = biological target: T1, Cytochrome P450 1A2; remark: listed apart in the source
SUMO E1/E2 = SUMO E1/E2 (Homo sapiens, UniProt P63279+Q9UBE0+Q9UBT2); test: SAR analysis of SUMOylation using HTRF in an in-Vitro dose response assay. [Related pubchem assays (depositor defined):AID2006, AID2011, AID2018, AID2069, AID2658]; format: functional
SUMO E1/E2, sequence (Q9UBE0 whole entry): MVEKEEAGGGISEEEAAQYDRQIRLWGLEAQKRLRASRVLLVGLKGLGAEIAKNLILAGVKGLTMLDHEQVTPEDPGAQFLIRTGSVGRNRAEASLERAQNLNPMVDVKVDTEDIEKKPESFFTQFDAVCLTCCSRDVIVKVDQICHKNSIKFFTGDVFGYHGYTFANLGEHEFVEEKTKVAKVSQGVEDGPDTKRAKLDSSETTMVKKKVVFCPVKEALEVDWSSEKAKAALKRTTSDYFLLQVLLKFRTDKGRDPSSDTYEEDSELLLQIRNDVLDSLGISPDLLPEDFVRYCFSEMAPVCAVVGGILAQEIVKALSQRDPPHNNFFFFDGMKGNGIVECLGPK
SUMO E1/E2, sequence (Q9UBT2 whole entry): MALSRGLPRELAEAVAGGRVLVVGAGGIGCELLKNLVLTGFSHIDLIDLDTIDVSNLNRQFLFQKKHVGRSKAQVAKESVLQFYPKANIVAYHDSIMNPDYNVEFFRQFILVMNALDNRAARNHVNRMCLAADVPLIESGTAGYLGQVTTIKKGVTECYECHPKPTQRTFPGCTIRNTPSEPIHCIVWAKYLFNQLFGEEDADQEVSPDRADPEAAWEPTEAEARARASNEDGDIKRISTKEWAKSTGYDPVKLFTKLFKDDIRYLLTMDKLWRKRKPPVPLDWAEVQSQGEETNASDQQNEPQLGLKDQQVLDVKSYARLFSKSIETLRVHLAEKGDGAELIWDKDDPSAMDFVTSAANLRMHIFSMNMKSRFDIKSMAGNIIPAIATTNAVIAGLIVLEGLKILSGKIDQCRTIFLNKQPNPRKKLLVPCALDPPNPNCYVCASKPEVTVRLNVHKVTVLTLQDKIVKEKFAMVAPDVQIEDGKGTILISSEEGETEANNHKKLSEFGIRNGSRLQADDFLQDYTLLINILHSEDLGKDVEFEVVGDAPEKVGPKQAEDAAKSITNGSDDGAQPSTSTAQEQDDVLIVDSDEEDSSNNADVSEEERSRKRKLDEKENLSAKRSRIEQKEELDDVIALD
SUMO E1/E2, sequence (P63279 whole entry): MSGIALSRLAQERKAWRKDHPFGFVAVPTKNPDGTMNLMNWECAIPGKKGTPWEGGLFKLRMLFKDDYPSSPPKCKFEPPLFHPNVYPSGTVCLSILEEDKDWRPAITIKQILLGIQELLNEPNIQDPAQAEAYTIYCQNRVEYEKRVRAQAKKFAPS

[3] = biological target: Kappa-type opioid receptor (Homo sapiens, UniProt P41145); test: SAR analysis of small molecule agonists of the kappa opioid receptor via a luminescent beta-arrestin assay - Set 3. [Related pubchem assays (depositor defined):AID1777, AID1785, AID1786, AID1966, AID2133, AID2136, AID2284, AID2500]; format: functional
Kappa-type opioid receptor, sequence (P41145 whole entry): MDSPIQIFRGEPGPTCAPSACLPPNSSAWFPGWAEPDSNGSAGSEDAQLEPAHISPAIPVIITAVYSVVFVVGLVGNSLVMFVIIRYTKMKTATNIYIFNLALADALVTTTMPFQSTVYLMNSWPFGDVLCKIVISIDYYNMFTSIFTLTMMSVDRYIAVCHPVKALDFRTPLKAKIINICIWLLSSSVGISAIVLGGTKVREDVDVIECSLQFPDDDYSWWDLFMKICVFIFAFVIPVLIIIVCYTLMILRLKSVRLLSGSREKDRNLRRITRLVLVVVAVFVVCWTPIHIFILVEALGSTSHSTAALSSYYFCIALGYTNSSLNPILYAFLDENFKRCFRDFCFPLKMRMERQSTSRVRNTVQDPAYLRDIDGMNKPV

BJ [4] = test: cells; format: functional, cell-based; conditions: Homo sapiens
BJ [5] = test: cytotoxicity toward BJ-TERT-LT-ST fibroblasts, dose response, cell-based, RAS-independent, luminescence (AID 1935); format: functional; conditions: Homo sapiens;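 also: BJ fibroblasts immortalized with TERT plus LT and ST oncogenes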
[6] = cytotoxicity toward DRD oncogenic fibroblasts, dose response, cell-based, non-viral oncogenic, luminescence (AID 1934); format: functional; conditions: Homo sapiens
[7] = cytotoxicity in HEK-293T cells, dose response, cytotoxicity control for TCR NF-kB inhibitor project, luminescence, T-cell screen hits (AID 489026); format: functional, cell-based;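 also: cells exposed to compound about 14 hours before the viability readout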
BJ [8] = test: cytotoxicity toward BJ-TERT fibroblasts, dose response, cell-based, RAS-independent, luminescence (AID 1933); format: functional; conditions: Homo sapiens

SMILES: c1cncc([C@@H]2CCCCN2)c1 [ANABASINE]
AC50 (Cytochrome P450 1A2 [1]): inconclusive
AC50 (Cytochrome P450 1A2 [2]): 5.01 µM (inconclusive)

IC50 (SUMO E1/E2): > 100 µM (inactive)
SMILES: COC(=O)c1ccc2c(c1)C1C=CCC1C(c1ccc(C(=O)O)cc1)N2 (centres undefined)

EC50 [3]: 18.8 µM (inactive)
SMILES: COc1ccc(Cn2c(SCc3ccc(Cl)c(C(F)(F)F)c3)nnc2-c2ccccn2)cc1

SMILES: O=C(Cc1ccc(-c2ccccc2)cc1)NCc1ccccc1
EC50 (BJ [4]): 13.6 µM (inconclusive)
EC50 (BJ [5]): 0.279 µM (inconclusive)
EC50 [6]: 0.489 µM (active)
IC50 [7]: > 80 µM (inactive)
EC50 (BJ [8]): 0.385 µM (active)

Source: ChEMBL document CHEMBL1201862, “PubChem BioAssay data set” (2004)
